Patent publication US6716829B2, “Aldosterone antagonist and cyclooxygenase-2 inhibitor combination therapy to prevent or treat inflammation-related cardiovascular disorders” (Pharmacia Corporation, priority 2000, dated 2004)
“And” between values parts separate entries of the source, which are not always exact repeats. Equal values may be shown once. “Also recorded” adds a separate entry of the source.

What was measured:
[1] = tested on: aldosterone infused rats; assay: Assay B, aldosterone infusion model: systolic blood pressure by radio-telemetry; format: in vivo, Male Sprague Dawley rats; details: 1% NaCl, uni-nephrectomized rats, eplerenone 100 mpk p.o., 4 weeks
Method: Human cardiovascular disorders are complex conditions, often initiated by vascular hypertension or a myocardial infarction (MI). In order to determine the probable effectiveness of a therapy for cardiovascular disorders, it is important to determine the potency of components in several assays. Accordingly, in Assay “A”, the efficacy of the aldosterone antagonist epeplerenone (epoxymexrenone) was determined in a hypertensive rat model with vascular inflammation, using angiotensin II infusion. In Assay “B” a study is described evaluating the efficacy of the aldosterone antagonist epeplerenone (epoxymexrenone) in a rat model using aldosterone infusion to produce hypertension with vascular inflammation. In Assay “C” a further study is described evaluating the efficacy of the aldosterone antagonist epeplerenone (epoxymexrenone) in a rat model using aldosterone infusion to produce hypertension with vascular inflammation. Assay B: In Vivo Aldosterone Infusion Model Male Sprague Dawley rats (n=39; BW=250 g) […] Uni-nephrectomy performed during implantation of mini-pumps 2. Aldosterone ([…], sc via alzet minipump) 2. […] 1. […] SBP measured by radio-telemetry probes inserted in the abdominal aorta

[2] = tested on: aldosterone-infused, saline-drinking, uni-nephrectomized rats; assay: Assay B: heart histology (hematoxylin&eosin), vascular inflammatory lesions and myocardial injury; format: in vivo, Male Sprague Dawley rats; details: eplerenone 100 mpk p.o., 0.6% KCl group, 4 weeks
Method: Assay B: In Vivo Aldosterone Infusion Model Male Sprague Dawley rats (n=39; BW=250 g) […] Uni-nephrectomy performed during implantation of mini-pumps 2. Aldosterone ([…], sc via alzet minipump) 2. […] 1. […] Sacrifice after 4 weeks. Hearts were harvested and divided by half through a transverse section at the mid-ventricles: The upper half was stored into formalin. The bottom part was snap-frozen in liquid nitrogen for biochemical analysis. Hearts were stained with hematoxylin&eosin and the collagen specific dye picro-sirius red and were analyzed for determination of interstitial collagen volume fraction and morphologic abnormalities (i.e. necrosis, vascular injury).

[3] = tested on: vascular cell adhesion molecule-1 (VCAM-1); assay: Assay C: VCAM-1 mRNA in heart by TaqMan RT-PCR; format: in vivo, Male Sprague-Dawley rats; details: for VCAM mRNA (AU): relative to cyclophilin expression, mean ± SEM, eplerenone dose 100 mg/kg/day; for VCAM (AU): mRNA; for VCAM-1 mRNA expression: myocardium, aldosterone + salt, 7, 14, 30 days, eplerenone 100 mg/kg/day
Method: The procedure of Assay B was expanded upon in a further study. […] Myocardial tissue from animals in each treatment group was examined after 7, 14, or 30 days of treatment.
Potassium chloride supplementation was added to the saline solution in order to prevent the potential hypokalemia associated with aldosterone excess.
At the time of the surgery, an Alzet 2002 osmotic minipump (Alza Corp., Palo Alto, Calif.) containing either vehicle (9% ethanol/87% propylene glycol/4% dH2O) or 1.0 mg/mL d-aldosterone (Sigma Chemical, St. Louis, Mo.) was inserted subcutaneously at the nape of the neck. Aldosterone was administered at a dose of 0.75 µg/hour. […] Animals were sacrificed from each group (n=8-13) after 7, 14, or 30 days of treatment.
The fluorogenic 5′-nuclease assay (TaqMan PCR) using Applied Biosystems' 7700 Sequence Detection System (Applied Biosystems, Foster City, Calif.) allowed for real time detection/quantitation of a specific gene by monitoring the increase in fluorescence of a gene-specific, dye-labeled oligonucleotide probe. Probes for target and reference genes were labeled at the 5′-end with a 6-carboxyfluorescein (6FAM) reporter dye and at the 3′-end with a 6-carboxy-N,N,N′,N′-tetramethylrhodamine (TAMRA) quencher dye. When the probe was annealed to the target gene, fluorescence of 6FAM was prevented by the close proximity of TAMRA. The exonuclease activity of Taq polymerase released the dyes from the oligonucleotide probe by displacing the probe from the target sequence resulting in fluorescence excitation in direct proportion to the amount of target message present. Data analysis was performed using the Sequence Detection System software from Applied Biosystems.
All primers and probes were designed using Primer Express software supplied with the 7700 Sequence Detection System and synthesized by Applied Biosystems. Standard curves using 5-fold dilutions of total RNA (from 200 ng to 320 pg) were performed to determine the efficiency of each primer/probe set in the TaqMan reaction prior to the analysis of the experimental samples. Primer/probe sets were designed from known sequences of rat genes to be analyzed. All target gene values were normalized to a reference gene, constitutively expressed cyclophilin. Primer/probe set sequences can be found in Table 8.
RNA was extracted from frozen (−80° C.) rat heart tissue using the Totally RNA Isolation Kit (Ambion, Inc., Austin, Tex.). Tissue was crushed using a stainless steel mortar and pestle, which had been chilled to −80° C. and transferred to a dounce homogenizer (Kontes, Vineland, N.J.) containing 3-10 mL cold denaturation buffer. Tissue was homogenized and transferred to a sterile, 15 mL polypropylene centrifuge tube. An equal volume of phenol:chloroform:isoamyl alcohol (25:24:1) was added, samples were shaken vigorously for 1 min, and incubated on ice for at least 15 min. Samples were centrifuged for 30 min at 10,000g. The aqueous phase was removed, 1/10 volume of a sodium acetate solution (3.0 M NaOAc pH 4.5) was added, samples were shaken or inverted for 10 seconds, and acid-phenol (premixed with isoamyl alcohol):chloroform (5:1, Ambion, Inc.) was added at an volume equivalent to the starting sample volume. Samples were shaken vigorously for 1 min, followed by a 15-min incubation on ice, and centrifuged for 30 min at 10,000 g. The aqueous phase removed and placed in a clean polypropylene tube. An equal volume of isopropanol (Sigma, St. Louis, Mo.) was added and the samples were mixed and incubated overnight at −20° C. The samples were centrifuged for 30 min at 10,000 g, the supernatant was removed and the RNA pellet was resuspended in DNAse/RNAse-free water. Samples were frozen at −80° C. for at least 2 hours, thawed on wet ice, and diluted for quantitation.

[4] = group mean, data used for Table 17 (7-day protocol)
[5] = group mean, data used for Table 18 (14-day protocol)
[6] = group mean, data used for Table 19 (30-day protocol)

| Compound | Systolic Blood Pressure [1] | Vascular inflammatory changes / myocardial injury [2] | VCAM mRNA (AU) ([3]; after 7 days of treatment) | VCAM mRNA (AU) ([3]; after 14 days of treatment) | VCAM mRNA (AU) ([3]; after 30 days of treatment) | VCAM (AU) [3, 4] | VCAM (AU) [3, 5] | VCAM (AU) [3, 6] | VCAM (AU) ([3]; individual rats, data used for Table 17 (7-day protocol), incl. rat marked * excluded from statistics, listed as Aldosterone + salt) | VCAM (AU) ([3]; individual rats, data used for Table 18 (14-day protocol), incl. rat marked * excluded from statistics, listed as Aldosterone + salt) | VCAM (AU) ([3]; individual rats, data used for Table 19 (30-day protocol), incl. rat marked * excluded from statistics, listed as Aldosterone + salt) | VCAM-1 mRNA expression [3] | Systolic Blood Pressure ([1]; listed as eplerenone) | VCAM (AU) ([3]; individual rats, data used for Table 17 (7-day protocol), incl. rat marked * excluded from statistics, listed as Eplerenone + aldosterone + salt) | VCAM (AU) ([3]; individual rats, data used for Table 18 (14-day protocol), incl. rat marked * excluded from statistics, listed as Eplerenone + aldosterone + salt) | VCAM (AU) ([3]; individual rats, data used for Table 19 (30-day protocol), incl. rat marked * excluded from statistics, listed as Eplerenone + aldosterone + salt) |
| --- | --- | --- | --- | --- | --- | --- | --- | --- | --- | --- | --- | --- | --- | --- | --- | --- |
| C[C@]12CCC(=O)C=C1CC[C@@H]1[C@@H]2[C@@H](O)C[C@]2(C=O)[C@@H](C(=O)CO)CC[C@@H]12 [Aldosterone] | increased; also recorded: systolic blood pressure elevation | severe vascular inflammatory lesions | 1.55 ± 0.39 AU | 1.16 AU | 2.14 ± 0.49 AU | 1.55 AU | 1.16 AU | 2.14 AU | 3.49 AU and 0.85 AU and 2.06 AU and 2.51 AU and 1.65 AU and 0.61 AU and 0.94 AU and 0.27 AU and 5.23 AU | 0.89 AU and 0.69 AU and 0.84 AU and 0.72 AU and 2.23 AU and 1.03 AU and 1.65 AU and 1.24 AU and 1.75 AU | 3.48 AU and 1.87 AU and 2.99 AU and 1.64 AU and 0.72 AU | increased two-fold | – | – | – | – |
| COC(=O)[C@@H]1CC2=CC(=O)CC[C@]2(C)[C@@]23O[C@@H]2C[C@@]2(C)[C@@H](CC[C@@]24CCC(=O)O4)[C@H]13 [Eplerenone] | significantly reduced, but did not normalize blood pressure | prevention; also recorded: completely prevented | 0.56 ± 0.08 AU | 0.83 AU | 1.04 ± 0.14 AU | 0.56 AU | 0.83 AU | 1.04 AU | – | – | – | inhibition; also recorded: significantly reduced | depression of this elevation | 0.67 AU and 0.58 AU and 0.22 AU and 0.57 AU and 0.53 AU and 1.00 AU | 0.54 AU and 0.66 AU and 0.61 AU (2×) and 0.67 AU and 0.86 AU and 1.21 AU and 1.00 AU and 0.68 AU (2×) and 1.60 AU | 1.42 AU (2×) and 1.29 AU and 1.49 AU and 1.27 AU and 0.79 AU and 0.52 AU and 0.57 AU and 0.61 AU and 4.01 AU |
